# In patent US20240228512A1, “ACYCLIC OXAZEPINE COMPOUNDS COMPRISING A 6-AZA MOIETY AND USES THEREOF” (Genentech, Inc., priority 2022, published 2024):
# How the values were obtained:
# Assay type in all cases: cell-based
# SW620 cells = test: SW620 3D proliferation assay (CellTiter-Glo); details: Homo sapiens, SW-620, 168 h, SW620, 3D culture, 7 days, read-out: SW620 CTG IC50
# Procedure: (§1) SW620 and HPAC 3D proliferation assays.
# (§2) Compound potencies were assessed in proliferation assays conducted with SW620 and HPAC cell lines grown in 3D cultures. Cells were seeded into 96- or 384-well ultra-low attachment plates at 3000 or 1000 cells/well, respectively, in culture medium (RPMI-1640, 10% FBS, 2 mM L-glutamine). The plated cells were centrifuged briefly, allowed to rest for 30 minutes under ambient conditions, and cultured overnight at 37° C./5% CO2 to initiate the formation of spheroids. Compound dilutions were prepared across a range of concentrations in DMSO and added to the appropriate wells of the assay plates with a 333-fold dilution into the culture medium. The plates were further incubated for 7 days. The quantity of viable cells was assessed using CellTiter-Glo 3D Cell Viability Assay (Promega). The detection reagent penetrates the spheroids and lyses the cells. The released ATP that was detected with luciferase and a luciferase substrate to generate a luminescent readout. […] The data points were fit to a 4-parameter logistic equation to determine IC50 values.
# H1975 cells = test: H1975 CTG proliferation assay; details: Homo sapiens, NCI-H1975, H1975, CTG
# HPAC cells = test: HPAC 3D proliferation assay (CellTiter-Glo); details: Homo sapiens, 168 h, 3D culture, 7 days, read-out: HPAC CTG IC50
# Procedure: as §1, §2
# SW620 PERK = SW620 PERK assay; details: Homo sapiens, SW-620, SW620, PERK
Structure (SMILES),IC50 (SW620 cells),IC50 (H1975 cells),IC50 (SW620 PERK),IC50 (HPAC cells)
"Cc1c(F)c(N)cc(-c2nc3c4c(nc(OC[C@@H]5CC(F)(F)CN5C)nc4c2F)N([C@H](C)c2nccnc2N)CCO3)c1C(F)(F)F [Example 8, 3-((R)-1-(5-(5-amino-4-fluoro-3-methyl-2-(trifluoromethyl)phenyl)-2-(((S)-4,4-difluoro-1-methylpyrrolidin-2-yl)methoxy)-4-fluoro-8,9-dihydro-10H-7-oxa-1,3,6,10-tetraazacyclohepta[de]naphthalen-10-yl)ethyl)pyrazin-2-amine]",0.456 µM,0.555 µM,0.139 µM,2 µM
"Cc1c(F)c(N)cc(-c2nc3c4c(nc(OC[C@@]56CCCN5C[C@H](F)C6)nc4c2F)N([C@H](C)c2cccnc2N)CCO3)c1CC(F)F [Example 612, 3-((R)-1-(5-(5-amino-2-(2,2-difluoroethyl)-4-fluoro-3-methylphenyl)-4-fluoro-2-(((2R,7aS)-2-fluorotetrahydro-1H-pyrrolizin-7a(5H)-yl)methoxy)-8,9-dihydro-10H-7-oxa-1,3,6,10-tetraazacyclohepta[de]naphthalen-10-yl)ethyl)pyridin-2-amine]",0.0284 µM,2.5 µM,0.0156 µM,0.359 µM
"Cc1c(F)c(N)cc(-c2nc3c4c(nc(OC[C@@H]5CC(F)(F)CN5C)nc4c2F)N([C@H](C)c2cccnc2N)CCO3)c1C(F)(F)F [Example 20, 3-((R)-1-(5-(5-amino-4-fluoro-3-methyl-2-(trifluoromethyl)phenyl)-2-(((S)-4,4-difluoro-1-methylpyrrolidin-2-yl)methoxy)-4-fluoro-8,9-dihydro-10H-7-oxa-1,3,6,10-tetraazacyclohepta[de]naphthalen-10-yl)ethyl)pyridin-2-amine]",0.0303 µM,0.421 µM,0.00859 µM,0.484 µM
"Cc1c(F)c(N)c(F)c(-c2nc3c4c(nc(OC[C@@]56CCCN5C[C@H](F)C6)nc4c2F)N([C@H](C)c2nccnc2N)CCO3)c1C(F)(F)F [Example 13, 3-((1R)-1-(5-(3-amino-2,4-difluoro-5-methyl-6-(trifluoromethyl)phenyl)-4-fluoro-2-(((2R,7aS)-2-fluorotetrahydro-1H-pyrrolizin-7a(5H)-yl)methoxy)-8,9-dihydro-10H-7-oxa-1,3,6,10-tetraazacyclohepta[de]naphthalen-10-yl)ethyl)pyrazin-2-amine]",0.0267 µM,0.0734 µM,,

# The next lines start with results.
IC50 (SW620 cells),IC50 (H1975 cells),IC50 (SW620 PERK),Structure (SMILES),IC50 (HPAC cells)
0.0306 µM,0.0977 µM,0.0221 µM,"C[C@H](c1cccnc1N)N1CCOc2nc(-c3c(C(F)(F)F)cc(F)c(N)c3F)c(F)c3nc(OC[C@@]45CCCN4C[C@H](F)C5)nc1c23 [Example 621, 3-((1R)-1-(5-(3-amino-2,4-difluoro-6-(trifluoromethyl)phenyl)-4-fluoro-2-(((2R,7aS)-2-fluorotetrahydro-1H-pyrrolizin-7a(5H)-yl)methoxy)-8,9-dihydro-10H-7-oxa-1,3,6,10-tetraazacyclohepta[de]naphthalen-10-yl)ethyl)pyridin-2-amine]",0.339 µM
0.00225 µM,0.00712 µM,0.00245 µM,"Cc1c(F)c(N)cc(-c2nc3c4c(nc(OC[C@@]56CCCN5C[C@H](F)C6)nc4c2Cl)N([C@H](C)c2cccnc2N)CCO3)c1C(F)(F)F [Example 32, 3-((R)-1-(5-(5-amino-4-fluoro-3-methyl-2-(trifluoromethyl)phenyl)-4-chloro-2-(((2R,7aS)-2-fluorotetrahydro-1H-pyrrolizin-7a(5H)-yl)methoxy)-8,9-dihydro-10H-7-oxa-1,3,6,10-tetraazacyclohepta[de]naphthalen-10-yl)ethyl)pyridin-2-amine]",0.0187 µM
